Results on 15 molecules are retold here after patent publication US20140303164A1, “THERAPEUTIC COMPOUNDS” (Gilead Sciences, Inc., priority 2013, published 2014).

What is called CC50 is the concentration that lowers cell viability or growth by half. The low end stands for greater toxicity to the cells, the high end for lower toxicity to the cells. What is called inhibition is the drop in the measured response relative to a control, in per cent. What is called % inhibition is the percentage by which the read-out fell short of the control. A low value points to a response near the control.

A short description of data set [1]: Test B: Cytotoxicity Assay. Type of data set: cell-based. As to conditions: human, uninfected MT-4 cells, same protocol as Test A. The protocol:
(§1) MT-4 cells were next mixed with HIV-IIIb at an m.o.i of 0.003 for 1 hour, after which time 35 μL of virus/cell mixture (2000 cells) was immediately added to each well containing 40 μL of diluted compound. The plates were then incubated at 37° C. for 5 days. […] Cell lysis was carried out by incubating at room temperature for 10 min and then chemiluminescence was read.
Test B: Cytotoxicity Assay
Compound cytotoxicity and the corresponding CC50 values was determined using the same protocol as described in the antiviral assay (Test A) except that uninfected cells were used.

In a further data set the test system is HIV-IIIb. Briefly: Test A: Antiviral Assay in MT4 Cells. The format is cell-based, HIV-1. As to conditions: for inhibition at 0.2 µM / inhibition at 2 µM: Human immunodeficiency virus 1, IIIB, MT4, 120 h; for inhibition at 0.2 µM: read-out: % inhibition at 0.2 μM; for inhibition at 2 µM: read-out: % inhibition at 2 μM. As for the experimental part: Test A: Antiviral Assay in MT4 Cells
as §1

`C#Cc1ccc(-c2ccc(Cl)c3cnn(C)c23)c([C@H](Cc2cc(F)cc(F)c2)NC(=O)Cn2nc(C(F)F)c3c2C(F)(F)[C@@H]2C[C@H]32)n1` [Compound 136D, N—((S)-1-(3-(4-chloro-1-methyl-1H-indazol-7-yl)-6-ethynylpyridin-2-yl)-2-(3,5-difluorophenyl)ethyl)-2-((3b-S,4aR)-3-(difluoromethyl)-5,5-difluoro-3b,4,4a,5-tetrahydro-1H-cyclopropa[3,4]cyclopenta[1,2-c]pyrazol-1-yl)acetamide] displayed a CC50 at 5 days in data set [1] of 7.43 µM. This counts as single-digit micromolar. Take `O=C(Cn1nc(C(F)F)c2c1C(F)(F)CCC2(F)F)N[C@@H](Cc1cc(F)cc(F)c1)c1ncc(-c2cnc3[nH]ccc3c2)cc1-c1cnc2[nH]ccc2c1` [Compound 11, (S)—N-(1-(3,5-di(1H-pyrrolo[2,3-b]pyridin-5-yl)pyridin-2-yl)-2-(3,5-difluorophenyl)ethyl)-2-(3-(difluoromethyl)-4,4,7,7-tetrafluoro-4,5,6,7-tetrahydro-1H-indazol-1-yl)acetamide]: the inhibition at 0.2 µM with HIV-IIIb is 3%. In data set [1], `Cn1nc(NS(C)(=O)=O)c2c(Cl)ccc(-c3ccc(C#CC(C)(C)O)nc3[C@H](Cc3cc(F)cc(F)c3)NC(=O)Cn3nc(C(=O)O)c4c3C(F)(F)[C@@H]3C[C@H]43)c21` [Compound 147, (3bS,4aR)-1-(2-(((S)-1-(3-(4-chloro-1-methyl-3-(methylsulfonamido)-1H-indazol-7-yl)-6-(3-hydroxy-3-methylbut-1-yn-1-yl)pyridin-2-yl)-2-(3,5-difluorophenyl)ethyl)amino)-2-oxoethyl)-5,5-difluoro-3b,4,4a,5-tetrahydro-1H-cyclopropa[3,4]cyclopenta[1,2-c]pyrazole-3-carboxylic acid] registered a CC50 at 5 days greater than 53.2 µM. For `CC(C)(O)C#Cc1ccc(-c2ccc3c(c2)C(=O)NC32CC2)c([C@H](Cc2cc(F)cc(F)c2)NC(=O)Cn2nc(C(F)(F)F)c3c2C(F)(F)[C@@H]2C[C@H]32)n1` [Compound 3D, 2-((3bS,4aR)-5,5-difluoro-3-(trifluoromethyl)-3b,4,4a,5-tetrahydro-1H-cyclopropa[3,4]cyclopenta[1,2-c]pyrazol-1-yl)-N—((S)-2-(3,5-difluorophenyl)-1-(6-(3-hydroxy-3-methylbut-1-yn-1-yl)-3-(3′-oxospiro[cyclopropane-1,1′-isoindolin]-5′-yl)pyridin-2-yl)ethyl)acetamide], the inhibition at 0.2 µM in the data set with HIV-IIIb was determined as 82%. With `O=C(Cn1nc(C(F)F)c2c1C(F)(F)CCC2(F)F)N[C@@H](Cc1cc(F)cc(F)c1)c1nc(-c2ccc3c(c2)C(=O)NC3)ccc1-c1ccc2c(c1)C(=O)NC2` [Compound 6, (S)—N-(1-(3,6-bis(3-oxoisoindolin-5-yl)pyridin-2-yl)-2-(3,5-difluorophenyl)ethyl)-2-(3-(difluoromethyl)-4,4,7,7-tetrafluoro-4,5,6,7-tetrahydro-1H-indazol-1-yl)acetamide], the inhibition at 0.2 µM in the data set on HIV-IIIb worked out at 5%. With `CC(C)(O)C#Cc1ccc(-c2cccc3c2CNC3=O)c([C@H](Cc2cc(F)cc(F)c2)NC(=O)Cn2nc(C(F)(F)F)c3c2C(F)(F)[C@@H]2C[C@H]32)n1` [Compound 15, 2-((3bS,4aR)-5,5-difluoro-3-(trifluoromethyl)-3b,4,4a,5-tetrahydro-1H-cyclopropa[3,4]cyclopenta[1,2-c]pyrazol-1-yl)-N—((S)-2-(3,5-difluorophenyl)-1-(6-(3-hydroxy-3-methylbut-1-yn-1-yl)-3-(1-oxoisoindolin-4-yl)pyridin-2-yl)ethyl)acetamide], the “% inhibition at 2 μM” value in the data set with HIV-IIIb (percent inhibition of virus-induced cell killing at 2 μM drug concentration, from dose response curve, MT-4 cells, HIV-IIIb, 5 days, values above 100 normalized to 100) amounted to 94%. As for `Cn1nc(NS(C)(=O)=O)c2cccc(-c3cnc([C@H](Cc4cc(F)cc(F)c4)NC(=O)Cn4nc(C(F)F)c5c4C(F)(F)[C@@H]4C[C@H]54)c(-c4cccc5c(NS(C)(=O)=O)nn(C)c45)n3)c21` [Compound 146I, N—((S)-1-(3,5-bis(1-methyl-3-(methylsulfonamido)-1H-indazol-7-yl)pyrazin-2-yl)-2-(3,5-difluorophenyl)ethyl)-2-((3b-S,4aR)-3-(difluoromethyl)-5,5-difluoro-3b,4,4a,5-tetrahydro-1H-cyclopropa[3,4]cyclopenta[1,2-c]pyrazol-1-yl)acetamide], half-maximal cytotoxicity in data set [1] (CC50 at 5 days) was put at 33.5 µM.

Regarding `O=C(Cn1nc(C(F)F)c2c1C(F)(F)CCC2(F)F)N[C@@H](Cc1cc(F)cc(F)c1)c1ncc(-c2ccc3c(c2)C(=O)NC3)cc1-c1ccc2c(c1)C(=O)NC2` [Compound 10B, (S)—N-(1-(3,5-bis(3-oxoisoindolin-5-yl)pyridin-2-yl)-2-(3,5-difluorophenyl)ethyl)-2-(3-(difluoromethyl)-4,4,7,7-tetrafluoro-4,5,6,7-tetrahydro-1H-indazol-1-yl)acetamide], the inhibition at 0.2 µM with HIV-IIIb is 1%.

As to `CC(C)(O)C#Cc1ccc(-c2cccc3c(=O)[nH]c(=O)[nH]c23)c([C@H](Cc2cc(F)cc(F)c2)NC(=O)Cn2nc(C(F)(F)F)c3c2C(F)(F)[C@@H]2C[C@H]32)n1` [Compound 17, 2-((3bS,4aR)-5,5-difluoro-3-(trifluoromethyl)-3b,4,4a,5-tetrahydro-1H-cyclopropa[3,4]cyclopenta[1,2-c]pyrazol-1-yl)-N—((S)-2-(3,5-difluorophenyl)-1-(3-(2,4-dioxo-1,2,3,4-tetrahydroquinazolin-8-yl)-6-(3-hydroxy-3-methylbut-1-ynyl)pyridin-2-yl)ethyl)acetamide], the inhibition at 0.2 µM in the data set on HIV-IIIb was determined as 95%.

Regarding `Cn1nc(NS(C)(=O)=O)c2c(Cl)ccc(-c3ccc(C#CC(C)(C)N)nc3[C@H](Cc3cc(F)cc(F)c3)NC(=O)Cn3nc(C(F)F)c4c3C(F)(F)[C@@H]3C[C@H]43)c21` [Compound 127, N—((S)-1-(6-(3-amino-3-methylbut-1-yn-1-yl)-3-(4-chloro-1-methyl-3-(methylsulfonamido)-1H-indazol-7-yl)pyridin-2-yl)-2-(3,5-difluorophenyl)ethyl)-2-((3bS,4aR)-3-(difluoromethyl)-5,5-difluoro-3b,4,4a,5-tetrahydro-1H-cyclopropa[3,4]cyclopenta[1,2-c]pyrazol-1-yl)acetamide], in the data set with HIV-IIIb, the inhibition at 0.2 µM was 92% and the inhibition at 2 µM was 92%. With `Cn1nc(NS(C)(=O)=O)c2c(Cl)ccc(-c3ccc(C#CC(C)(O)C(F)F)nc3[C@H](Cc3cc(F)cc(F)c3)NC(=O)Cn3nc(C(F)F)c4c3C(F)(F)[C@@H]3C[C@H]43)c21` (stereo partly drawn) [Compound 169, N-((1S)-1-(3-(4-chloro-1-methyl-3-(methylsulfonamido)-1H-indazol-7-yl)-6-(4,4-difluoro-3-hydroxy-3-methylbut-1-yn-1-yl)pyridin-2-yl)-2-(3,5-difluorophenyl)ethyl)-2-((3b-S,4aR)-3-(difluoromethyl)-5,5-difluoro-3b,4,4a,5-tetrahydro-1H-cyclopropa[3,4]cyclopenta[1,2-c]pyrazol-1-yl)acetamide], in the data set with HIV-IIIb, the inhibition at 0.2 µM was 92% and the inhibition at 2 µM was determined as 92%. For `CC(C)(O)C#Cc1ccc(-c2cccc3c2CNC3=O)c([C@H](Cc2cc(F)cc(F)c2)NC(=O)Cn2nc(C(F)(F)F)c3c2C(F)(F)[C@@H]2C[C@H]32)n1` [Compound 14E, 2-((3bS,4aR)-5,5-difluoro-3-(trifluoromethyl)-3b,4,4a,5-tetrahydro-1H-cyclopropa[3,4]cyclopenta[1,2-c]pyrazol-1-yl)-N—((S)-2-(3,5-difluorophenyl)-1-(6-(3-hydroxy-3-methylbut-1-yn-1-yl)-3-(1-oxoisoindolin-4-yl)pyridin-2-yl)ethyl)acetamide], the inhibition at 0.2 µM in the data set with HIV-IIIb stood at 87%. For `Cn1nc(NS(C)(=O)=O)c2c(Cl)ccc(-c3ccc(C#CC(C)(C)O)nc3[C@H](Cc3cc(F)cc(F)c3)NC(=O)Cn3nc(C(F)(F)F)c4c3C(F)(F)[C@@H]3C[C@H]43)c21` [Compound 78, N—((S)-1-(3-(4-chloro-1-methyl-3-(methylsulfonamido)-1H-indazol-7-yl)-6-(3-hydroxy-3-methylbut-1-yn-1-yl)pyridin-2-yl)-2-(3,5-difluorophenyl)ethyl)-2-((3b-S,4aR)-5,5-difluoro-3-(trifluoromethyl)-3b,4,4a,5-tetrahydro-1H-cyclopropa[3,4]cyclopenta[1,2-c]pyrazol-1-yl)acetamide], in the data set on HIV-IIIb, the inhibition at 0.2 µM is 98% and the inhibition at 2 µM came out at 98%. Turning to `O=C(Cn1nc(C(F)F)c2c1C(F)(F)CCC2(F)F)N[C@@H](Cc1cc(F)cc(F)c1)c1nc(-c2cnc3[nH]ccc3c2)ccc1-c1cnc2[nH]ccc2c1` [Compound 7, (S)—N-(1-(3,6-bis(1H-pyrrolo[2,3-b]pyridin-5-yl)pyridin-2-yl)-2-(3,5-difluorophenyl)ethyl)-2-(3-(difluoromethyl)-4,4,7,7-tetrafluoro-4,5,6,7-tetrahydro-1H-indazol-1-yl)acetamide], the inhibition at 0.2 µM in the data set with HIV-IIIb was found to be 8%. For the molecule `CC(C)(O)C#Cc1ccc(-c2ccc(F)c(C(N)=O)c2)c([C@H](Cc2cc(F)cc(F)c2)NC(=O)Cn2nc(C(F)(F)F)c3c2C(F)(F)[C@@H]2C[C@H]32)n1` [Compound 18, 5-(2-((S)-1-(2-((3bS,4aR)-5,5-difluoro-3-(trifluoromethyl)-3b,4,4a,5-tetrahydro-1H-cyclopropa[3,4]cyclopenta[1,2-c]pyrazol-1-yl)acetamido)-2-(3,5-difluorophenyl)ethyl)-6-(3-hydroxy-3-methylbut-1-yn-1-yl)pyridin-3-yl)-2-fluorobenzamide], the “Response at 0.2 μM” value in the data set on HIV-IIIb (percent inhibition of virus-induced cell killing at 0.2 μM, comparison with previously published compounds (WO 2013/006738)) turned out to be 96%. The “Response at 2 μM” value in the data set with HIV-IIIb (percent inhibition of virus-induced cell killing at 2 μM, comparison with previously published compounds (WO 2013/006738)) worked out at 90%.
